Like-named read-outs stand apart in the source and are kept apart here.
Experiments:
Vero cells = assay: MTT cytotoxicity assay in Vero cells; format: cell-based; details: 50 to 400 μM, 24 h incubation
[1] = MTT cytotoxicity assay in Hep-2 cells; format: cell-based; details: human, CC50, Hep-2 cells, MTT assay, concentration required to reduce cell viability by 50%
Hep-2 cells = assay: MTT cytotoxicity assay in Hep-2 cells; format: cell-based; details: 50 to 400 μM, MTT, 24 h incubation
[2] = MTT cytotoxicity assay in HeLa cells; format: cell-based; details: human, CC50, HeLa cells, MTT assay, concentration required to reduce cell viability by 50%
HeLa cells = assay: MTT cytotoxicity assay in HeLa cells; format: cell-based; details: 50 to 400 μM, MTT, 24 h incubation
HSV-1 gD protein [3] = molecular target: T1, HSV-1 gD protein (Human herpesvirus 1, UniProt Q69091); assay: Surface plasmon resonance; format: binding, Herpes simplex virus type 1
T1 sequence (Q69091 26-394): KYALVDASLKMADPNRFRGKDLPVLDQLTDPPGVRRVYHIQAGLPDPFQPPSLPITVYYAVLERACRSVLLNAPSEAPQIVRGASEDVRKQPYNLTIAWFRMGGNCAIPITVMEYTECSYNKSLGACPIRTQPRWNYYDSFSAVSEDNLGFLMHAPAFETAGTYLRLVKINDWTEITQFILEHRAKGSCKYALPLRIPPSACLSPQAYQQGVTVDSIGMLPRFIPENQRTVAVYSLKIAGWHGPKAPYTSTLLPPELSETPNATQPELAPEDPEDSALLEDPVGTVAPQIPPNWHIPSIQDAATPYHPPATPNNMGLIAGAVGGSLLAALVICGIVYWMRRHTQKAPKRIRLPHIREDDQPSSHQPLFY

phosphorylated EGFR = assay: Western blot of phosphorylated EGFR in HSV-2 infected cells; format: cell-based; details: HSV-2 (MOI = 1.0) infected cells, virus control about 2.4
phosphorylated PI3K = assay: Western blot of phosphorylated PI3K in HSV-2 infected cells; format: cell-based; details: HSV-2 (MOI = 1.0) infected cells, virus control about 1.9
phosphorylated Akt = assay: Western blot of phosphorylated Akt in HSV-2 infected cells; format: cell-based; details: HSV-2 (MOI = 1.0) infected cells, virus control about 12.1
HSV-1 (F strain) [4] = assay: Murine intranasal model of HSV pneumonia and encephalitis; format: in vivo, BALB/c mice; details: for survival by day 14 post infection: placebo 20%
HSV-1 (F strain) [5] = assay: Virus yield in culture media by plaque assay, HSV-1; format: cell-based, Herpes simplex virus type 1; details: Vero cells; concentration >1.25 μM; 24 h p.i.; p < 0.05
HSV-2 (333 strain) [6] = assay: Virus yield in culture media by plaque assay, HSV-2; format: cell-based, Herpes simplex virus type 2; details: Vero cells; concentration >1.25 μM; 24 h p.i.; p < 0.05
HSV-1 [7] = assay: Plaque reduction assay, HSV-1; format: cell-based, Herpes simplex virus type 1; details: pretreatment of HSV with 1.25-20 μM; Vero cells
HSV-2 [8] = assay: Plaque reduction assay, HSV-2; format: cell-based, Herpes simplex virus type 2; details: pretreatment of HSV with 1.25-20 μM; Vero cells
HSV-2 [9] = assay: Cell fusion inhibition assay; format: cell-based, Herpes simplex virus type 2; details: 30, 15 μM during 5-7 h p.i.; HSV-2 (MOI = 3.0) infected Vero cells
gD protein = assay: Western blot of virus gD expression during 5-7 h p.i.; format: cell-based, Herpes simplex virus type 2; details: treatment during 5-7 h p.i.
HSV-1 gD protein [10] = molecular target: T1, HSV-1 gD protein; assay: DARTS assay, gD; format: binding, Herpes simplex virus type 1; details: 60 μM; pronase 3 μg/ml; HSV-1 infected Vero cell lysates
[11] = system: gB, gC, and gH/gL proteins; assay: DARTS assay, other virus surface glycoproteins; format: binding, Herpes simplex virus type 1; details: 60 μM; HSV-1 infected Vero cell lysates
HVEM and nectin-1 = assay: DARTS assay, cellular surface receptors of HSV-1; format: binding; details: 60 μM; HSV-1 infected Vero cell lysates
HSV-1 gD protein [12] = molecular target: T1, HSV-1 gD protein; assay: HSV-1 gD binding to Vero cells, cell ELISA; format: cell-based, Herpes simplex virus type 1
[13] = system: EGFR, PI3K and Akt proteins; assay: Western blot of total EGFR, PI3K and Akt in HSV-2 infected Vero cells; format: cell-based; details: 2.5, 5, 10, 20 μM for 2 h
EGFR/PI3K/Akt pathway [14] = assay: Western blot of phosphorylated EGFR, PI3K and Akt in non-infected Vero cells; format: cell-based; details: 2.5, 5, 10, 20 μM for 2 h
EGFR/PI3K/Akt pathway [15] = format: cell-based; details: 5, 10, 20 μM; Vero cells treated with HSV-1 gD protein (2 μg/ml); vs gD treated control, p < 0.05
HSV-1 gD mRNA = assay: Real-time RT-PCR of gD mRNA, HSV-1 infected Vero cells; format: cell-based, Herpes simplex virus type 1; details: 5, 10, 20 μM; HSV-1 (MOI = 1.0) infected Vero cells, 8 h; p < 0.05
HSV-2 gD mRNA = assay: Real-time RT-PCR of gD mRNA, HSV-2 infected Vero cells; format: cell-based, Herpes simplex virus type 2; details: 5, 10, 20 μM; HSV-2 (MOI = 1.0) infected Vero cells, 8 h; p < 0.05
[16] = system: HIV reverse transcriptase; details: ref Pasetto et al., 2014; cited from earlier work
HSV-1 [17] = details: Vero cells; ref Lyu et al., 2005; cited from earlier work
[18] = system: SARS-CoV helicase protein; details: cited from earlier work
HSV-1 [19] = assay: Time-of-addition assay, HSV-1; details: Vero cells, 24 h p.i.
HSV-2 [20] = assay: Time-of-addition assay, HSV-2; details: Vero cells, 24 h p.i.
HSV-1 (F strain) [21] = assay: Indirect immunofluorescence assay of ICP27 in HSV-1 infected Vero cells; details: pretreatment of virus with 10 μM before infection
HSV-1 (F strain) [22] = assay: CPE inhibition assay, HSV-1; details: for IC50: read-out: HSV-1 IC50
HSV-2 (333 strain) [23] = assay: CPE inhibition assay, HSV-2; details: for IC50: read-out: HSV-2 IC50
[24] = 20 μM for 1 h before infection, p < 0.01
[25] = 10 mg·kg-1 intraperitoneal, day 4 p.i.

Compound: O=c1c(O)c(-c2cc(O)c(O)c(O)c2)oc2cc(O)cc(O)c12 [Myricetin, 3,5,7-trihydroxy-2-(3,4,5-trihydroxyphenyl)-4-benzopyrone]
- cytotoxicity (Vero cells): no significant cytotoxicity
- CC50 at 24 h [1]: ~965 µM
- cytotoxicity (Hep-2 cells): no significant cytotoxicity
- CC50 at 24 h [2]: ~1150 µM
- cytotoxicity (HeLa cells): no significant cytotoxicity
- Kd (HSV-1 gD protein [3]): ~0.0609 µM
- level of phosphorylated EGFR (phosphorylated EGFR; 10 μM for 2 h): about 1.4 fold of normal control group
- level of phosphorylated EGFR (phosphorylated EGFR; 20 μM for 2 h): ~0.8 fold of normal control group
- level of phosphorylated PI3K (phosphorylated PI3K; 5 μM for 2 h): about 1.4 fold of normal control group
- level of phosphorylated PI3K (phosphorylated PI3K; 10 μM for 2 h): about 1.4 fold of normal control group
- level of phosphorylated PI3K (phosphorylated PI3K; 20 μM for 2 h): ~0.8 fold of normal control group
- activation of Akt (p-Akt) (phosphorylated Akt; 5 μM for 2 h): about 3.9 fold of normal control group
- activation of Akt (p-Akt) (phosphorylated Akt; 10 μM for 2 h): ~2.5 fold of normal control group
- activation of Akt (p-Akt) (phosphorylated Akt; 20 μM for 2 h): ~1.2 fold of normal control group
- brain histopathology (HE staining) (HSV-1 (F strain) [4]; 2.5 mg·kg-1, day 4 p.i., comparable to acyclovir (10 mg·kg-1)): only had tiny hyperaemia
- brain histopathology (HE staining) (HSV-1 (F strain) [4]; 5 mg·kg-1, day 4 p.i.): nearly had no hyperaemia and infiltration of inflammatory cells
- lung histopathology (HE staining) (HSV-1 (F strain) [4]; 2.5 or 5 mg·kg-1, day 4 p.i.): intact columnar epithelium
- survival by day 14 post infection (HSV-1 (F strain) [4]; 2.5 or 5 mg·kg-1 intraperitoneal once daily for five days): 100%
- body weight loss during the infection (HSV-1 (F strain) [4]; 2.5 or 5 mg·kg-1 intraperitoneal once daily for five days, placebo up to 19%): less than 5%
- survival rates compared to placebo-treated control group (HSV-1 (F strain) [4]; 2.5 or 5 mg·kg-1 intraperitoneal, p < 0.01): significantly increased survival rates
- pulmonary virus titers (HSV-1 (F strain) [4]; myricetin 2.5 or 5 mg·kg-1 intraperitoneal, day 4 p.i., plaque assay, p < 0.05): significantly decreased
- virus titers in culture media (HSV-1 (F strain) [5]): significantly reduced the virus titers
- virus titers in culture media (HSV-2 (333 strain) [6]): significantly reduced the virus titers
- number of plaques (HSV-1 [7]): significantly reduced the number of plaques
- number of plaques (HSV-2 [8]): significantly reduced the number of plaques
- syncytium formation (HSV-2 [9]): markedly blocked syncytium formation
- expression of virus surface glycoproteins such as gD protein (gD protein): did not obviously influence the expression
- protection of gD protein from protease digestion (HSV-1 gD protein [10]): obviously protected
- protection of gB, gC, and gH/gL proteins from protease digestion [11]: could not protect
- protection of HVEM and nectin-1 from protease digestion (HVEM and nectin-1): could also not be protected
- binding of gD to cell surface, pre-incubation of gD protein (HSV-1 gD protein [12]; 5, 10, 20, 40 μM, gD protein 2 μg/mL, dose-dependent): significantly reduced the binding of gD to cell surface
- amount of gD protein on cell surface, pretreatment of cells (HSV-1 gD protein [12]; 40, 20, 10, 5 μM for 1 h): did not significantly decrease the amount of gD protein on cell surface
- total expression levels of EGFR, PI3K and Akt proteins [13]: did not significantly influence the total expression levels
- activation of EGFR, PI3K and Akt proteins (EGFR/PI3K/Akt pathway [14]): could not significantly influence the activation
- levels of phosphorylated EGFR, PI3K, and Akt proteins (EGFR/PI3K/Akt pathway [15]): significantly reduced
- expression level of gD mRNA (HSV-1 gD mRNA): significantly reduced the expression level of gD mRNA
- expression level of gD mRNA (HSV-2 gD mRNA): significantly reduced the expression level of gD mRNA
- activity of HIV reverse transcriptase [16]: inhibited the activity of HIV reverse transcriptase
- inhibitory effects against HSV-1 (HSV-1 [17]): moderate inhibitory effects
- inhibition of SARS-CoV helicase protein [18]: potently inhibited
- virus titers, pretreatment of virus (HSV-1 [19]; [24]): significantly reduced the virus titers
- virus titers, pretreatment of cells (HSV-1 [19]; 20 μM): did not significantly reduce virus titers
- virus multiplication, treatment after adsorption (HSV-1 [19]; 20 μM, p < 0.05): obvious inhibition on virus multiplication
- virus titers, pretreatment of virus (HSV-2 [20]; [24]): significantly reduced the virus titers
- virus titers, pretreatment of cells (HSV-2 [20]; 20 μM): did not significantly reduce virus titers
- virus multiplication, treatment after adsorption (HSV-2 [20]; 20 μM, p < 0.05): obvious inhibition on virus multiplication
- expression of ICP27 (HSV-1 (F strain) [21]): significantly reduced the expression of ICP27

Compound: Nc1nc2c(ncn2COCCO)c(=O)[nH]1 [Acyclovir]
- CC50 at 24 h [1]: 898 ± 72.6 µM
- CC50 at 24 h [2]: 830 ± 40 µM
- survival by day 14 post infection (HSV-1 (F strain) [4]; 10 mg·kg-1 intraperitoneal once daily for five days): 90%
- virus titers in lungs (HSV-1 (F strain) [4]; [25]): significant reduction of virus titers
- virus titers in spinal cord (HSV-1 (F strain) [4]; [25]): significant reduction of virus titers
- HSV-1 SI (CC50/IC50) (HSV-1 (F strain) [22]; HeLa cells): 75.5
- HSV-1 SI (CC50/IC50) (HSV-1 (F strain) [22]; Hep-2 cells): 46.5
- IC50 (HSV-1 (F strain) [22]; Human alphaherpesvirus 1, HEp-2, 24 h): 19.3 ± 2.2 µM
- IC50 (HSV-1 (F strain) [22]; Human alphaherpesvirus 1, HeLa, 24 h): 11 ± 1.2 µM
- IC50 (HSV-1 (F strain) [22]; Human alphaherpesvirus 1, Vero, 24 h): 7.4 ± 0.6 µM
- HSV-1 SI (CC50/IC50) (HSV-1 (F strain) [22]; Vero cells): 131.8
- HSV-2 SI (CC50/IC50) (HSV-2 (333 strain) [23]; HeLa cells): 37.9
- HSV-2 SI (CC50/IC50) (HSV-2 (333 strain) [23]; Hep-2 cells): 31.5
- IC50 (HSV-2 (333 strain) [23]; Human alphaherpesvirus 2, HEp-2, 24 h): 28.5 ± 4.3 µM
- IC50 (HSV-2 (333 strain) [23]; Human alphaherpesvirus 2, HeLa, 24 h): 21.9 ± 3.2 µM
- IC50 (HSV-2 (333 strain) [23]; Human alphaherpesvirus 2, Vero, 24 h): 11.6 ± 2.5 µM
- HSV-2 SI (CC50/IC50) (HSV-2 (333 strain) [23]; Vero cells): 84.1

Compound: O=c1cc(-c2ccc(O)cc2)oc2cc(O)c(O)c(O)c12 [scutellarein, reference compound]
- inhibition of SARS-CoV helicase protein [18]: potently inhibited

Compound: O=c1c(O)c(-c2ccc(O)c(O)c2)oc2cc(O)cc(O)c12 [quercetinin, reference compound]
- inhibitory effects against HSV-1 (HSV-1 [17]): moderate inhibitory effects

Reference: article PMC7111628 (Antiviral Research, 2020)
